The source of these data is patent US4481194A, “Des-proline-des-glycine vasopressin antagonists” (SmithKline Beckman Corporation, priority 1984, dated 1984).

In assay [1] the target is T1, vasopressin stimulated adenylate cyclase (Sus scrofa, UniProt P32307).
T1 construct: in the medullary tissue of hog or human kidneys; from tissue; host or cells: kidney medullary membranes (hog or human)
Briefly: Vasopressin stimulated adenylate cyclase activity in kidney medullary membrane. Type of assay: biochemical. As to conditions: In Vitro (Pig); antagonism of vasopressin stimulated adenylate cyclase, medullary tissue.
Experimental: In the test procedure for assay of adenylate cyclase activity, the amount of ^32 P/cAMP formed in the absence of medullary membrane is determined (blank). The blank value is subtracted from all experimental data. The compound is tested for its effect on basal adenylate cyclase activity and/or on vasopressin stimulated activity. Each determination is carried out in triplicate. The Ka value is derived from a Lineweaver-Burkeplot. Rel. Vmax =(Vmax drug/Vmax vasopressin)×100. Ki =I/[Ka'/Ka)-1] where I is the concentration of the antagonist, and Ka' and Ka are the concentrations of vasopressin required to give half maximal activity of adenylate cyclase in the presence and absence of antagonist, respectively.

Assay [2] deals with T2, vasopressin receptors [V2 -receptors] (Sus scrofa, UniProt P32307).
T2 construct: average KD value determined on 3 preparations of hog kidney membranes; from tissue; host or cells: hog kidney medullary membranes
T2 sequence (P32307 whole entry): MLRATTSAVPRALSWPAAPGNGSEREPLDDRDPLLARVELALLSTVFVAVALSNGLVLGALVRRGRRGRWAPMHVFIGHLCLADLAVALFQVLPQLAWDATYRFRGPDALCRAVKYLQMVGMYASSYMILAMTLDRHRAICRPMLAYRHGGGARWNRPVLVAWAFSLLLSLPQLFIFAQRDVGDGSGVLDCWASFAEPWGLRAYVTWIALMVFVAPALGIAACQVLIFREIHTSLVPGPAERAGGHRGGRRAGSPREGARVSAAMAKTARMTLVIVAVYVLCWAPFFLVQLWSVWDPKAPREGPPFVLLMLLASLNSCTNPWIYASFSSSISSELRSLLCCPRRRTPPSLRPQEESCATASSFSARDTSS
Briefly: 3H-vasopressin binding assay, hog kidney membranes. Particulars: In Vitro (Pig); competitive inhibition of 3H-vasopressin binding; read-out: BB.
Experimental: In the test procedure for binding assays, the amount of ^3 H-vasopressin bound in the absence and in the presence of an excess of vasopressin (7.5×10^-6 M) is measured in triplicate. These values represent total and non-specific binding, respectively.

Another assay has as its system hydropenic rat. Briefly: Hydropenic rat screen (anti-ADH activity in vivo). As to conditions: estimated dose of peptide delivered ip which reduces Uosm from hydropenic levels to 300 mOsmoles/kg H2O. As for the experimental part: Antagonistic activity toward the natural antidiuretic hormone (anti-ADH activity) is determined, in vitro, in the medullary tissue of hog or human kidneys and, in vivo, in the hydropenic rat. The in vitro assay procedures for vasopressin stimulated adenylate cyclase activation or vasopression binding activity are described by F. Stassen et al., J. Pharmacology and Experimental Therapeutics, 223, 50-54 (1982).
The assay for anti-ADH activity is the hydropenic rat protocol is described below:
Food and water are removed from male rats approximately 18 hours prior to testing. Animals are housed 4 per metabolism cage. At 0 hour, the test compound is administered intraperitoneally to the test group and an equivalent volume of vehicle is administered to both control groups (fasted and non-fasted). Urine volume and osmolality are measured every hour for 4 hours. Test values are recorded as ml of urine excreted (cumulative), mEq/rat electrolyte excreted, mg/rat urea excreted, and osmolality in milli-Osmoles/kg H2 O. A tolerance test is used to determine significance. ED300 is defined as the dose of compound (μg/kg) required to lower urine osmolality to 300 m-Osmoles/kg.

SMILES strings stand for the structures. Numbered stars: 1 amine (or outer) side, 2 acyl side, 3 side chain; on linkers, the order of the positions; unused ones are H or OH. Bridge positions count the residues as written; N and C are the ends. Square brackets hold non-standard residues; d marks the D form. Peptide text beside a SMILES is read from it. X1 = O=C(CC1(S[*:2])CCCCC1)[*:1]; Abu = CC[C@H](N)C(=O)O

T1 sequence (P32307 whole entry): as above

As for `CCOc1ccc(C[C@H]2NC(=O)CC3(CCCCC3)SSC[C@@H](C(=O)N[C@@H](CCCNC(=N)N)C(N)=O)NC(=O)[C@H](CC(N)=O)NC(=O)[C@H](C(C)C)NC(=O)[C@H](Cc3ccccc3)NC2=O)cc1` [A] ([dY](Et)FVNCR-NH2; linker N-5 via X1), the figures for the Ki in assay [1] and in assay [2] were 2.5 nM and 9000 nM, respectively.

In assay [1], `CCOc1ccc(C[C@H]2NC(=O)CC3(CCCCC3)SSC[C@@H](C(=O)N[C@@H](CCCNC(=N)N)C(N)=O)NC(=O)[C@H](CC(N)=O)NC(=O)[C@H](CC)NC(=O)[C@H](Cc3ccccc3)NC2=O)cc1` [B, 1(mercapto-β,cyclopentamethylenepropionic acid)2-(O--ethylD-tyrosine)-4-aminobutyric acid7-desproline-8-arginine-9-desglycinevasopressin] ([dY](Et)F[Abu]NCR-NH2; linker N-5 via X1) came in with a Ki of 6.2 nM. In the assay with hydropenic rat, the ED300 is 0.1218 mg/kg.

For the compound `CCOc1ccc(C[C@H]2NC(=O)CC3(CCCCC3)SSC[C@@H](C(=O)N3CCC[C@H]3C(=O)N[C@@H](CCCNC(=N)N)C(=O)NCC(N)=O)NC(=O)[C@H](CC(N)=O)NC(=O)[C@H](C(C)C)NC(=O)[C@H](Cc3ccccc3)NC2=O)cc1` [C, [mercapto-β,cyclopentamethylenepropionic acid)2-(O--ethylD-tyrosine)-4-valine-8-argininevasopressin, reference compound] ([dY](Et)FVNCPRG-NH2; linker N-5 via X1 (inferred); C-terminus assumed), the Ki in assay [1] is 9.8 nM. In addition, the ED300 with hydropenic rat was 0.011 mg/kg.
